Data published in article PMC9460261, “Need for a Standardized Translational Drug Development Platform: Lessons Learned from the Repurposing of Drugs for COVID-19” (Microorganisms, 2022).
Counter-ions that a name gives are not always drawn. Like-named read-outs stand apart in the source and are kept apart here.

Legend:
[1] = Population PK model from satellite PK studies in hamster
[2] = Plasma protein binding, human; details: for fraction unbound: human, plasma
[3] = Plasma protein binding, hamster; details: for fraction unbound: hamster, plasma
[4] = Binding to antiviral assay medium by Rapid Equilibrium Dialysis; details: for fraction unbound: bovine, antiviral assay medium (DMEM with 2% v/v FCS)
[5] = tested on: SARS-CoV-2 in Vero cells; assay: microbe, parasite or virus in culture; details: Severe acute respiratory syndrome coronavirus 2, Vero
[6] = tested on: SARS-CoV-2; assay type: in vivo, Syrian hamster
[7] = tested on: SARS-CoV-2 in Calu-3 cells; assay: microbe, parasite or virus in culture; details: Severe acute respiratory syndrome coronavirus 2, Calu-3, read-out: Calu-3 cells Average IC50
[8] = in vitro; details: African green monkey, Selectivity Index (Vero cells)
[9] = tested on: SARS-CoV-2; details: cited from earlier work
[10] = Population PK model in human (digitized literature data); details: human; modelled from digitized data; ref 68 (ambroxol), 71-73 (cepharanthine), 78 (fluvoxamine), 80 (molnupiravir)
[11] = tested on: SARS-CoV-2 in Vero cells
[12] = tested on: SARS-CoV-2 in Calu-3 cells
[13] = hamster of the study's median weight (80-131 g)
[14] = equilibrium dialysis, DNDi in-house
[15] = read-out: VERO cells Average IC50, With Pgp pump inhibitor, 2 μM CP-100356, * one replicate only
[16] = read-out: VERO cells Average IC50, Without Pgp pump inhibitor, * one replicate only
[17] = doses, frequency, duration as in Table 1
[18] = host cell Vero, ref 25, read-out: SARS-CoV-2 EC50

Compound	CL/F, elimination clearance, population estimate (%RSE) [1, 13]	VC/F, central volume of distribution, population estimate (%RSE) [1, 13]	IC50 [5, 15] [µM]	IC50 [5, 16] [µM]	Activity in SARS-CoV-2 Hamster Model [6, 17]	fraction unbound [3]	IC50 [7] [µM]	selectivity ratio ([8]; Without Pgp pump inhibitor)	EC50 [9, 18] [µM]	fraction unbound [4]	fraction unbound [2]	Activity In Vitro; Potency EC50 or IC50 < 10 µM; Vero Cells [11]	Activity In Vitro; Potency EC50 or IC50 < 10 µM; Calu-3 Cells [12]	KA, absorption rate constant, population estimate (%RSE) [1, 13]	also measured
C[C@@]1(F)[C@H](O)[C@@H](CO)O[C@H]1n1cnc2c(=O)[nH]c(N)nc21 [AT-273]	5.77 (33.1) mL/h	49200 (13.2) mL	–	–	–	–	–	–	–	–	–	–	–	–	KTR, population estimate (%RSE) ([1]; hamster 119 g): 12.3 (50.5) h-1; Q/F (Q1/F), inter-compartment clearance, population estimate (%RSE) [1, 13]: 6730 (12.2) mL/h; VP/F, peripheral volume of distribution, population estimate (%RSE) [1, 13]: 84800 (27.3) mL; Fraction unbound in plasma, human [2, 14]: 57.8%; Fraction unbound in plasma, hamster [3, 14]: 95.5%; Fraction unbound in assay medium ([4]; 2% serum DMEM media, DNDi in-house data): 99.1%
COC(=O)N[C@H](C(=O)N[C@@H](Cc1ccccc1)[C@@H](O)CN(Cc1ccc(-c2ccccn2)cc1)NC(=O)[C@@H](NC(=O)OC)C(C)(C)C)C(C)(C)C [Atazanavir, atazanavir]	–	–	> 50	45.5	no activity	0.2	21	> 2.2	> 50	0.348	–	–	–	–	EC50 ([9]; atazanavir and ATZ/ritonavir combination, read-out: EC50 in infected A549 lung epithelia cells): 0.6 µM; EC50 ([9]; host cell A549, read-out: SARS-CoV-2 EC50): 0.2 µM; EC50 ([9]; host cell Vero E6, ref 23, read-out: SARS-CoV-2 EC50): 2 µM; EC50 ([9]; host cell Vero E6, ref 24, read-out: SARS-CoV-2 EC50): 9.36 µM
COCCCC/C(=N\OCCN)c1ccc(C(F)(F)F)cc1 [Fluvoxamine maleate, fluvoxamine maleate]	9500 (10.8) mL/h	16500 (12.8) mL	32.6	26	No	0.281	> 50	–	–	0.771	0.254	No (key: Yes: Potency EC50 or IC50 < 10 µM; No: Potency EC50 or IC50 < 10 µM)	No (key: Yes: Potency EC50 or IC50 < 10 µM; No: Potency EC50 or IC50 < 10 µM)	–	CL/F, population estimate (%RSE) [10]: 0.148 (3.0) L/h; Dose effect on F (power) ([1]; covariate, hamster model): 1.21 (7.4)
CNCCC(Oc1ccc(C(F)(F)F)cc1)c1ccccc1 (stereo not drawn) [Fluoxetine, fluoxetine]	447 (7.0) mL/h	3530 (6.5) mL	–	–	–	0.051	–	–	–	0.682	0.048	Yes ^T (key: Yes: Potency EC50 or IC50 < 10 µM; No: Potency EC50 or IC50 < 10 µM)	No (key: Yes: Potency EC50 or IC50 < 10 µM; No: Potency EC50 or IC50 < 10 µM)	5.34 (11.7) h-1	IC50 ([5]; read-out: VERO cells Average IC50, With Pgp pump inhibitor): 5.6 µM; IC50 ([5]; read-out: VERO cells Average IC50, Without Pgp pump inhibitor): 7.7 µM; Dose effect on FFP (power) ([1]; covariate, hamster model): -0.0175 (13.7); Activity in SARS-CoV-2 Hamster Model ([6]; hamster, in vivo): No; Toxicity observed (^T), Vero Cells [11]: Yes ^T
CCN(CC)Cc1cc(Nc2ccnc3cc(Cl)ccc23)ccc1O [Amodiaquine, amodiaquine]	4390 (7.44%) mL/h	158 (15.3%) mL	2.6	8.8	No (parent)	0.096	> 50	> 5.7	5.2	0.878	0.067	Yes (Potency EC50 or IC50 < 10 µM)	No (Potency EC50 or IC50 < 10 µM)	0.0784 (6.52%) h-1	IC50 ([5]; read-out: EC50 or IC50, Vero Cells): ~10 µM; Route effect (SC) on CL/F ([1]; covariate, hamster model): -85.3 (1.81%); Route effect (SC) on KA ([1]; covariate, hamster model): -20.4 (19.8%); selectivity ratio ([8]; With Pgp pump inhibitor): > 19; EC50 ([9]; host cell Calu-3, read-out: SARS-CoV-2 EC50): > 50 µM; EC50 ([9]; host cell Huh7.5, read-out: SARS-CoV-2 EC50): 0.6 µM; EC50 ([9]; host cell Vero CCL81, read-out: SARS-CoV-2 EC50): 1.6 µM; EC50 ([9]; host cell Vero E6, ref 29, read-out: SARS-CoV-2 EC50): 10 µM; EC50 ([9]; host cell Vero E6, ref 30, read-out: SARS-CoV-2 EC50): 4.9 µM
